B1: IFN-β: recombinant mouse IFN-β1 used to stimulate BMDMs (protein, UniProt P01575 22-182, looked up)
Interferon beta: INYKQLQLQERTNIRKCQELLEQLNGKINLTYRADFKIPMEMTEKMQKSYTAFAIQEMLQNVFLVFRNNFSSTGWNETIVVRLLDELHQQTVFLKTVLEEKQEERLTWEMSSTALHLKSYYWRVQRYLKLMKYNSYAWMVVRAEIFRNFLIIRRLTRNFQN

Legend:
Type in all cases: cell-based, mouse
[1] = test system: BMDMs; assay: ELISA of cytokine release from BMDMs; details: LPS 4 h; for LPS-induced IFN-β release: BMDMs pre-treated
Experimental: (§1) All compounds used DMSO as a vehicle except for 4-hydroxy tamoxifen (EtOH), NAC (PBS), and AOAA for tracing experiments (Media). LPS was used at a concentration of 100 ng/ml for indicated timepoints (2, 3, 4, 6, 8, 24, 48 h). FHIN1 (10 or 20 μM), MMF (50 or 100 μM), DMF (25 μM), AOAA (5 mM), oligomycin (10 μM), CCCP (50 μM) NAC (1 mM), and IMT1 (10 μM) pre-treatments were performed for 3 h prior the addition of LPS. Cells were treated with valinomycin (10 nM) 15 mins before LPS stimulation. Anti-CD210 or IgG control (10 μg/ml) antibodies were added to cells 1 h prior to LPS stimulation. Recombinant mouse IL-10 protein (100 ng/ml) was added to cells at the same time as LPS. Cells were treated with IFN-B1 (220 ng/ml) for 3 h. Cells were treated with C-178 (1 μM) 1 h prior to LPS stimulation or transfection with 2′3′-cGAMP (1.5 μg/ml) for 4 hrs to achieve cGAS-STING activation. Cells were treated with ODN 2088 (1 μM) for 1 hr prior to LPS stimulation or transfection with CPG ODN 1826 (1.5 μg/ml) to achieve TLR9 activation. 3 different timepoints of 4-hydroxy tamoxifen (TAM) (600 nM or 2 μM) or EtOH treatment were performed-these are specified in the individual figure legends. For ‘48 h’ treatments EtOH/TAM was added on day 5 of 6 during the BMDM differentiation protocol. On day 6 they were plated with EtOH/TAM (left overnight) and treated the following day. For ‘72 h’ treatments EtOH/TAM was added on day […] of 6 during the BMDM differentiation protocol. On day 6 they were plated with EtOH/TAM (left overnight) and treated the following day. For ‘96 h’ treatments EtOH/TAM was added on day […] of 6 during the BMDM differentiation protocol. On day 6 they were plated with EtOH/TAM and treated 2 days later.
(§2) Pre-designed silencer select siRNAs for Cgas (s103166), Tmem173 (s91058), Tlr3 (s100579), Tlr9 (s96268), As/(s99640), Tlr7 (s100720), Ddx58 (s106376), Ifih1 (s89787), Nrf2 (s70522), Atf4 (s62689) and negative control (4390843) were ordered from Thermo Fisher. siRNA sequences are given in Table S2. Cells were transfected with 50 nM siRNA using 5 μl lipofectamine RNAiMAX according to manufacturer's instructions (Thermo Fisher). Cells were transfected in medium without serum and antibiotics which was replaced with complete medium 8 hours later. Cells were subsequently left for at least a further 12 hours prior to treatment.
BMDMs were plated in the presence or absence of ultrapure ethidium bromide (100 ng/ml) and incubated for a further 6 days prior to treatment. Depletion of mtDNA was determined by genomic DNA isolation followed by qPCR using primers specific for areas of mitochondrial DNA (D-loop) and areas of mtDNA that are not inserted into nuclear DNA (Non-NUMT).
DuoSet ELISA kits for IL-1β, TNFα, IL-6, IL-10, and GDF15 were purchased from R&D Systems and were carried out according to the manufacturer's instructions with appropriately diluted cell supernatants added to each plate in duplicate or triplicate. IFN-β was determined using DuoSet ELISA kit from R&D Systems or Abcam (ab252363). Quantikine ELISA kit for IFN-β (R&D Systems) was used for determination of IFN-β concentration in serum samples and from human cells, and these were also carried out according to the manufacturer's instructions. Absorbance at 450 nm was quantified using a FLUOstar Optima plate reader. Corrected absorbance values were calculated by subtracting the background absorbance, and cytokine concentrations were subsequently obtained by extrapolation from a standard curve plotted on GraphPad Prism 9.2.0.

[2] = test system: BMDMs; assay: Flow cytometry, CellROX and TMRM staining; details: BMDMs pre-treated, LPS 4 h; oligomycin 10 μM, CCCP 50 μM, valinomycin 10 nM, MMF 50 or 100 μM
Experimental: as §1
Cells were plated in 12-well plates and treated as desired. CellROX Green (5 μM, Thermo Fisher) or TMRM (20 nM, Thermo Fisher) was added to cells 30 mins prior to end of cell treatments. Cells were washed once in PBS and scraped into 200 μl FACS buffer (2 mM EDTA, 0.5% FCS in PBS). Acquisition of samples was performed on a BD Accuri C6 flow cytometer. The gating strategy used for all flow cytometry experiments consisted of debris exclusion by FSC-A vs SSC-A analysis and subsequent doublet exclusion by FSC-A vs FSC-H analysis. A sample gating strategy is provided in Supplementary FIG. 2. 10,000 cells was acquired per condition. Mean fluorescence intensity (MFI) was calculated for all cells in each condition using FlowJo v10.

[3] = test system: BMDMs; assay: Immunofluorescence, Mitotracker Red and dsRNA; details: BMDMs pre-treated, relative to DMSO control, LPS 4 h
Experimental: as §1
Cells were plated on 20 mm cover slips in 12-well plates. Cells were treated as required and Mitotracker Red CMXRos (100 nM, Thermo Fisher), was added to medium 30 mins prior to end of cell treatments. After 30 min incubation, cells were washed three times with warm PBS. Cells were subsequently fixed for 10 mins with 4% paraformaldehyde/PBS at 37° C. Cells were washed three times with PBS and permeabilized for 1 hour in block solution (1% BSA, 22.52 mg/ml glycine, 0.1% tween 20 in PBS). Anti-dsRNA antibody (Merck) was diluted 1/60 in block solution and incubated with cells overnight at room temperature. Cells were washed three times with PBS for 5 mins/wash. […] Images were analysed using the LAS X Life Science Microscope Software Platform (Leica). The same microscope instrument settings were used for all samples and all images were analysed using the same settings. […] Quantification of dsRNA or Mitotracker Red CMXRos signal intensity was performed using the measure function in ImageJ 1.53t (NIH).

[4] = test system: BMDMs; assay: RT-qPCR gene expression in BMDMs
Experimental: as §1
RNA extraction from cells was carried out using a Purelink™ RNA kit (Invitrogen) according to the manufacturer's instructions. BMDMs were treated as required, and following treatment were instantly lysed in 350 μl RNA lysis buffer. Isolated RNA was quantified using a NanoDrop 2000 spectrophotometer, and RNA concentration was normalised to the lowest concentration across all samples with RNAse-free water. If necessary, samples were DNAse-treated after quantification using DNAse I (Thermo Fisher) according to the manufacturer's instructions. Isolated RNA samples were normalised and converted into cDNA using the High-Capacity cDNA Reverse Transcription Kit (Thermo Fisher) according to manufacturer's instructions. 10 μl of RNA (at a maximum concentration of 100 ng/μl) was added to 10 μl of reverse transcription master mix to complete the reaction mixture. Real-time quantitative PCR was performed on the cDNA generated in the previous step, using primers designed in-house and ordered from Eurofins Genomics, as detailed in Table S2. The reaction was performed in a 96-well qPCR plate by a 7500 Fast Real-Time PCR machine (Thermo Fisher). Relative expression (2^−ΔΔCT) was calculated from the CT values for each sample and gene of interest.
as §2

[5] = test system: BMDMs; assay: Digitonin fractionation, qPCR of mtDNA and mtRNA
Experimental: as §1
BMDMs were plated at 0.5×10^6 cells/well and treated as desired. After treatment, cells were washed once with room temperature PBS, before being scraped on ice into ice cold PBS and pelleted at 500×g for 5 mins at 4° C. Supernatant was removed and discarded, and the pellet was resuspended in 400 μl extraction buffer (150 mM NaCl, 50 mM HEPES pH 7.4, 25 μg/ml digitonin). Samples were then placed in a rotating mixer at 4° C. for 10 mins before centrifugation at 2000×g at 4° C. for 5 mins. The resulting supernatant constituted the cytosolic fraction, from which RNA and DNA were isolated using an AllPrep DNA/RNA Mini Kit (Qiagen). Alternatively, the cytosolic fraction was concentrated using Strataclean Resin (Agilent) and analysed by western blot. The pellet constituted a fraction containing membrane-bound organelles which was lysed in RNA lysis buffer for RNA isolation or lysed in western blot lysis buffer for analysis by western blot. To determine the presence of mtRNA and mtDNA in the cytosol, qPCR was performed using primers specific for mitochondrial D-loop on cDNA which had been reverse-transcribed from RNA isolated from the cytosolic fraction (mtRNA) and on DNA isolated from the cytosolic fraction (mtDNA). In both cases, values were normalised using a housekeeping control gene (β-actin) amplified in cDNA which had been reverse-transcribed from RNA isolated from the membrane-bound fraction.

Row | Molecule | LPS-induced IFN-β release [1] | mitochondrial membrane potential (MMP), TMRM staining [2] | dsRNA accumulation (immunofluorescence) [3] | other results
1 | N#CC(C#N)=NNc1cccc(Cl)c1 [CCCP] | boosted | significantly dissipated |  | 
2 | CC(C)[C@@H]1NC(=O)[C@H](C)OC(=O)[C@@H](C(C)C)NC(=O)[C@@H](C(C)C)OC(=O)[C@H](C(C)C)NC(=O)[C@H](C)OC(=O)[C@@H](C(C)C)NC(=O)[C@@H](C(C)C)OC(=O)[C@H](C(C)C)NC(=O)[C@H](C)OC(=O)[C@@H](C(C)C)NC(=O)[C@@H](C(C)C)OC1=O [valinomycin A, valinomycin] | boosted | non-significantly reduced | similarly drove dsRNA accumulation | 
3 | CC(=O)N[C@@H](CS)C(=O)O [NAC, N-acetyl cysteine] |  |  |  | suppression of Il10 by FHIN1 and DMF ([4]; BMDMs, NAC 1 mM together with FHIN1 or DMF, LPS 4 h): abrogated
4 | Cc1ccccc1-c1cc(=O)oc2cc(OC(C)C(=O)N(C)C)ccc12 (centres unmarked) [IMT1] |  |  |  | effect on the FHIN1-mediated boost in IFN-β release ([1]; BMDMs co-treated with FHIN1 and IMT1 10 μM): abrogated; effect on the increase in mtRNA with FHIN1 (cytosolic and whole cell fraction) ([5]; BMDMs co-treated with FHIN1 and IMT1 10 μM, LPS 4 h): inhibited in both
5 | CC[C@H]1/C=C/C=C/C[C@@H](C)[C@H](O)[C@@](C)(O)C(=O)[C@@H](C)[C@H](O)[C@@H](C)C(=O)[C@@H](C)[C@H](O)[C@@H](C)/C=C/C(=O)O[C@@H]2[C@H](C)[C@H](CC1)O[C@]1(CC[C@H](C)[C@H](C[C@@H](C)O)O1)[C@H]2C [oligomycin A, Oligomycin A] | boosted | boosted | accumulation of dsRNA to a similar extent to that observed in cells treated with FHIN1 | mtDNA in cytosolic extracts (D-loop) ([5]; digitonin-fractionated BMDMs): increase; mtRNA in cytosolic extracts ([5]; digitonin-fractionated BMDMs): increased
6 | B1 |  |  |  | Fh1 expression ([4]; IFN-β-stimulated BMDMs (220 ng/ml, 3 h)): inhibited

Reference: US20250018019A1, “TREATMENT OF INTERFERON DRIVEN INFLAMMATION” (The Provost, Fellows, Foundation Scholars and the other …, priority 2023, published 2025)
